Assays:
[1] = target: T1, Disintegrin and metalloproteinase domain-containing protein 17 (Homo sapiens, UniProt P78536); test: Inhibition of heparin-binding HB-EGF shedding
[2] = target: Stromelysin-1 (Homo sapiens, UniProt P08254); test: Inhibition of human recombinant matrix metalloprotease 3
[3] = target: T1, Disintegrin and metalloproteinase domain-containing protein 17; test: Inhibition of human tumor necrosis factor alpha converting enzyme
[4] = target: T2, Interstitial collagenase (Homo sapiens, UniProt P03956); test: Inhibition of human recombinant matrix metalloprotease 1
T2 sequence (P03956 whole entry): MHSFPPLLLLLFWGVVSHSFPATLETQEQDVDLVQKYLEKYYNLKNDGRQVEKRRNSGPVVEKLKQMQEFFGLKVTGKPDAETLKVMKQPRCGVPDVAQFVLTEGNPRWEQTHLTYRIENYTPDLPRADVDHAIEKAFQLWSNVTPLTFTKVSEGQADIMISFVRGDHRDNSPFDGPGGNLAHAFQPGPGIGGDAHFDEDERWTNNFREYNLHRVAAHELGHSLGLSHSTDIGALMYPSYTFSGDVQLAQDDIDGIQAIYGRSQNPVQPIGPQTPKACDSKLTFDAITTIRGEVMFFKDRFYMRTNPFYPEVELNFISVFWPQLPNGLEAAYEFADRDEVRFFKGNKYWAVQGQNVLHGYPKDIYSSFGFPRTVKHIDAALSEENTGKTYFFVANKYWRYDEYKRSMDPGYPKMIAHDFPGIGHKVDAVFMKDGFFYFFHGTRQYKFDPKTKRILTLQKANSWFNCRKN

[5] = target: Matrix metalloproteinase-9 (Homo sapiens, UniProt P14780); test: Inhibition of human recombinant matrix metalloprotease 9
Chain of Matrix metalloproteinase-9 (P14780 whole entry): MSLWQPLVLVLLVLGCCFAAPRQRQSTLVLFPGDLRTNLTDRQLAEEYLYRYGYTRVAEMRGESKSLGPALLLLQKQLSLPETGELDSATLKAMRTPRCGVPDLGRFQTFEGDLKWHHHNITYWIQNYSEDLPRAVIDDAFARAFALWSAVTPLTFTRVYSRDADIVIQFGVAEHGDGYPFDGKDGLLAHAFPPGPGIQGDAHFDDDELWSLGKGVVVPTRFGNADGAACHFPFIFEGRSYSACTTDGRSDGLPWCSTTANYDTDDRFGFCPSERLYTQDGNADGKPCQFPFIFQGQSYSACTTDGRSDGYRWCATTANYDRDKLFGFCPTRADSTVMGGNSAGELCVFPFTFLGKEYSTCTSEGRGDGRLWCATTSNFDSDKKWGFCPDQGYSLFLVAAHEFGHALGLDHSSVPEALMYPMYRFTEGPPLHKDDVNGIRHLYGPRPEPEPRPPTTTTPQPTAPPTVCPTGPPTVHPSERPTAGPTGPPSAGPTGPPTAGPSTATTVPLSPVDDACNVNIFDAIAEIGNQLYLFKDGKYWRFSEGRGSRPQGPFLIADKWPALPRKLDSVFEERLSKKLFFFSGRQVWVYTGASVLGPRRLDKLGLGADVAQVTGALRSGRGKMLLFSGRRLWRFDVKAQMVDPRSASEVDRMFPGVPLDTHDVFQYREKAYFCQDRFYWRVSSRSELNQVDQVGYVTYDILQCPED

Chain of Stromelysin-1 (P08254 whole entry, the tested form may be a part): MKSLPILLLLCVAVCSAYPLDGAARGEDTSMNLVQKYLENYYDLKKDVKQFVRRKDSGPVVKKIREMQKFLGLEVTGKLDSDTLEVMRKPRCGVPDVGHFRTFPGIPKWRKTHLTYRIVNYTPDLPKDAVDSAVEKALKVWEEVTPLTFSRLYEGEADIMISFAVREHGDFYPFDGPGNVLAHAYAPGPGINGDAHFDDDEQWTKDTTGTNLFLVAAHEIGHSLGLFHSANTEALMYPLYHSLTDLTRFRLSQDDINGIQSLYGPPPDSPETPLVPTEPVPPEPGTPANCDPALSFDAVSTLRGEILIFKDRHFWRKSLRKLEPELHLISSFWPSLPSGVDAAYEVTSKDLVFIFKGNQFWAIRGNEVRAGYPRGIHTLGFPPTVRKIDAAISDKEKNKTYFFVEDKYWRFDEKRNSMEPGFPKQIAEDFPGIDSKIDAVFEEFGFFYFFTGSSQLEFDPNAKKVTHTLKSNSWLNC
T1 sequence (P78536 whole entry, the tested form may be a part): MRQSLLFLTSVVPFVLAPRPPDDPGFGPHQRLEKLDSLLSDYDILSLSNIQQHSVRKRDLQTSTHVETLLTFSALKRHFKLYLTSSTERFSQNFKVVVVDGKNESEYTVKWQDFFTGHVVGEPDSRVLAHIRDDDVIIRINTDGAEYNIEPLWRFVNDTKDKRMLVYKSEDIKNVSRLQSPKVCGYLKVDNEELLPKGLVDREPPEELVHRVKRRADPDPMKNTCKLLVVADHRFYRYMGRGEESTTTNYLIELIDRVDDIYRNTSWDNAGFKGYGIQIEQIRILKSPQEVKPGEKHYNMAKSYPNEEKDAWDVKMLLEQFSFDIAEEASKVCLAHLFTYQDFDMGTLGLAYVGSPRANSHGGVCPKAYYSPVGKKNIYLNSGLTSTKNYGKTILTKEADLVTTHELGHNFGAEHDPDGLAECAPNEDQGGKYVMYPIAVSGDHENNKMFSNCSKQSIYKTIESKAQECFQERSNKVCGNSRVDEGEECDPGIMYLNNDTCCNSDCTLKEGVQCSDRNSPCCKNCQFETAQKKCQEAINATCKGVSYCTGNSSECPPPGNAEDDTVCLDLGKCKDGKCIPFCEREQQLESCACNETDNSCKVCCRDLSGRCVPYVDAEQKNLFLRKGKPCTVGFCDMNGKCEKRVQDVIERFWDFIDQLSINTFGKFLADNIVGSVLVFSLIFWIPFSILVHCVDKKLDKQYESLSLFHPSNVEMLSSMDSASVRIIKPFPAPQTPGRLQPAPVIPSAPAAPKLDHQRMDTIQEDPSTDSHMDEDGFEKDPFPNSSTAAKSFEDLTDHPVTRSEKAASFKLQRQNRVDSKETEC

Structure (SMILES)	IC50 [1]	Ki [2]	Ki [3]	Ki [4]	Ki [5]
O=C(NO)[C@H]1[C@@H](O)[C@H](O)[C@H](O)CN1S(=O)(=O)c1ccc(Oc2ccccc2)cc1	340 nM	0.35 nM	6.2 nM	5.3 nM	
COc1ccc(S(=O)(=O)N2C[C@@H](O)[C@@H](O)[C@H](O)[C@@H]2C(=O)NO)cc1	450 nM		15 nM	26 nM	
O=C(NO)[C@H]1[C@@H](O)[C@H](O)[C@H](O)CN1S(=O)(=O)c1ccc(OCc2ccccc2)cc1	84 nM	2.1 nM	1.7 nM	> 850 nM	7.4 nM
O=C(NO)[C@H]1[C@@H](O)[C@H](O)[C@H](O)CN1S(=O)(=O)c1ccc(-c2ccccc2)cc1	21000 nM	50 nM	21 nM	162 nM	47 nM
O=C(NO)[C@H]1[C@@H](O)[C@H](O)[C@@H](O)CN1S(=O)(=O)c1ccc(Oc2ccccc2)cc1	350 nM				
